≈ marks a conversion by molar mass, not a printed value.
Experiments:
Candida tropicalis = assay: Inhibition of Candida tropicalis ATCC 750 chitin synthase at 300 ug/ml using UDP-GlcNAc as substrate relative to control
Candida albicans [1] = assay: Antifungal activity against Candida albicans ATCC 76615 assessed as growth inhibition measured after 24 hrs by two-fold broth dilution method; type: functional; conditions: ATCC 76615, 24 h
Aspergillus fumigatus [2] = assay: Antifungal activity against Aspergillus fumigatus GIMCC 3.19 assessed as growth inhibition measured after 24 hrs by two-fold broth dilution method; type: functional; conditions: GIMCC 3.19, 24 h
Candida albicans [3] = assay: Antifungal activity against Candida albicans ATCC 90023 assessed as growth inhibition measured after 24 hrs by two-fold broth dilution method; type: functional; conditions: ATCC 90023, 24 h
Cryptococcus neoformans [4] = assay: Antifungal activity against Cryptococcus neoformans ATCC 32719 assessed as growth inhibition measured after 24 hrs by two-fold broth dilution method; type: functional; conditions: ATCC 32719, 24 h
Aspergillus flavus [5] = assay: Antifungal activity against Aspergillus flavus ATCC 16870 assessed as growth inhibition measured after 24 hrs by two-fold broth dilution method; type: functional; conditions: ATCC 16870, 24 h
Staphylococcus aureus [6] = assay: Antibacterial activity against methicillin-resistant Staphylococcus aureus N315 assessed as growth inhibition measured after 24 hrs by two-fold broth dilution method; type: functional; conditions: N315, 24 h
Staphylococcus aureus [7] = assay: Antibacterial activity against Staphylococcus aureus ATCC 25923 assessed as growth inhibition measured after 24 hrs by two-fold broth dilution method; type: functional; conditions: ATCC 25923, 24 h
Bacillus spizizenii = assay: Antibacterial activity against Bacillus subtilis ATCC 6633 assessed as growth inhibition measured after 24 hrs by two-fold broth dilution method; type: functional; conditions: ATCC 6633, 24 h
Escherichia coli = assay: Antibacterial activity against Escherichia coli JM 109 assessed as growth inhibition measured after 24 hrs by two-fold broth dilution method; type: functional; conditions: JM 109, 24 h
Pseudomonas aeruginosa = assay: Antibacterial activity against Pseudomonas aeruginosa ATCC 9027 assessed as growth inhibition measured after 24 hrs by two-fold broth dilution method; type: functional; conditions: ATCC 9027, 24 h
[8] = Inhibition of Candida tropicalis ATCC 750 chitin synthase using UDP-GlcNAc as substrate
Candida albicans [9] = assay: Antifungal activity against Candida albicans ATCC 76615 assessed as fractional inhibitory concentration index after 24 hrs in presence of fluconazole by two-dimensional broth microdilution checkboard assay; type: functional
Aspergillus fumigatus [10] = assay: Antifungal activity against Aspergillus fumigatus GIMCC 3.19 assessed as fractional inhibitory concentration index after 24 hrs in presence of fluconazole by two-dimensional broth microdilution checkboard assay; type: functional
Cryptococcus neoformans [11] = assay: Antifungal activity against Cryptococcus neoformans ATCC 32719 assessed as fractional inhibitory concentration index after 24 hrs in presence of fluconazole by two-dimensional broth microdilution checkboard assay; type: functional
Aspergillus flavus [12] = assay: Antifungal activity against Aspergillus flavus ATCC 16870 assessed as fractional inhibitory concentration index after 24 hrs in presence of fluconazole by two-dimensional broth microdilution checkboard assay; type: functional
Candida albicans [13] = assay: Antifungal activity against Candida albicans ATCC 76615 after 24 hrs in presence of fluconazole by two-dimensional broth microdilution checkboard assay; type: functional; conditions: ATCC 76615, 24 h
Aspergillus fumigatus [14] = assay: Antifungal activity against Aspergillus fumigatus GIMCC 3.19 after 24 hrs in presence of fluconazole by two-dimensional broth microdilution checkboard assay; type: functional; conditions: GIMCC 3.19, 24 h
Cryptococcus neoformans [15] = assay: Antifungal activity against Cryptococcus neoformans ATCC 32719 after 24 hrs in presence of fluconazole by two-dimensional broth microdilution checkboard assay; type: functional; conditions: ATCC 32719, 24 h
Aspergillus flavus [16] = assay: Antifungal activity against Aspergillus flavus ATCC 16870 after 24 hrs in presence of fluconazole by two-dimensional broth microdilution checkboard assay; type: functional; conditions: ATCC 16870, 24 h
Proteus vulgaris = assay: Antibacterial activity against Bacillus proteus ATCC 8427 assessed as growth inhibition measured after 24 hrs by two-fold broth dilution method; type: functional; conditions: ATCC 8427, 24 h
Candida albicans [17] = assay: Antifungal activity against Candida albicans ATCC 76615 assessed as fluconazole MIC after 24 hrs in presence of fluconazole by two-dimensional broth microdilution checkboard assay; type: functional; conditions: ATCC 76615, 24 h
Aspergillus fumigatus [18] = assay: Antifungal activity against Aspergillus fumigatus GIMCC 3.19 assessed as fluconazole MIC after 24 hrs in presence of fluconazole by two-dimensional broth microdilution checkboard assay; type: functional; conditions: GIMCC 3.19, 24 h
Cryptococcus neoformans [19] = assay: Antifungal activity against Cryptococcus neoformans ATCC 32719 assessed as fluconazole MIC after 24 hrs in presence of fluconazole by two-dimensional broth microdilution checkboard assay; type: functional; conditions: ATCC 32719, 24 h
Aspergillus flavus [20] = assay: Antifungal activity against Aspergillus flavus ATCC 16870 assessed as fluconazole MIC after 24 hrs in presence of fluconazole by two-dimensional broth microdilution checkboard assay; type: functional; conditions: ATCC 16870, 24 h
[21] = Inhibition of Saccharomyces cerevisiae CGMCC 2.145 chitin synthase using GlcNAc and UDP-GlcNAc as substrate incubated for 60 mins by microplate reader analysis

Row | Structure (SMILES) | inhibition (Candida tropicalis) [%] | MIC (Candida albicans [1]) | MIC (Aspergillus fumigatus [2]) | MIC (Candida albicans [3]) [µM] | MIC (Cryptococcus neoformans [4]) | MIC (Aspergillus flavus [5]) | MIC (Staphylococcus aureus [6]) [µM] | MIC (Staphylococcus aureus [7]) [µM] | MIC (Bacillus spizizenii) [µM] | MIC (Escherichia coli) [µM] | MIC (Pseudomonas aeruginosa) [µM] | IC50 [8] [µM] | fractional inhibitory concentration index (FICI) (Candida albicans [9]) | fractional inhibitory concentration index (FICI) (Aspergillus fumigatus [10]) | fractional inhibitory concentration index (FICI) (Cryptococcus neoformans [11]) | fractional inhibitory concentration index (FICI) (Aspergillus flavus [12]) | MIC (Candida albicans [13]) [µM] | MIC (Aspergillus fumigatus [14]) [µM] | MIC (Cryptococcus neoformans [15]) [µM] | MIC (Aspergillus flavus [16]) [µM] | other results
1 | O=C(Nc1ccc(Cl)cc1)[C@H](O)[C@@H](O)C(=O)N1CCC2(CCNC2=O)CC1 | 66.5 | 162 µM | 323 µM | 320 (≈ 127 µg/mL) | 162 µM | 323 µM | 650 (≈ 257 µg/mL) | 320 (≈ 127 µg/mL) | 1290 (≈ 511 µg/mL) | 320 (≈ 127 µg/mL) | 1290 (≈ 511 µg/mL) | 270 | 0.3 | 0.8 | 2 | 1 | 10 | 81 | 162 | 162 | MIC (Proteus vulgaris): 650 µM (≈ 257 µg/mL); MIC (Candida albicans [17]): 13 µM; MIC (Aspergillus fumigatus [18]): 52 µM; MIC (Cryptococcus neoformans [19]): 52 µM; MIC (Aspergillus flavus [20]): 104 µM
2 | COc1ccc(NC(=O)[C@H](O)[C@@H](O)C(=O)N2CCC3(CCNC3=O)CC2)cc1 | 78.3 | 164 µM | 82 µM | 330 (≈ 129 µg/mL) | 327 µM | 164 µM | 650 (≈ 254 µg/mL) | 330 (≈ 129 µg/mL) | 1310 (≈ 513 µg/mL) | 330 (≈ 129 µg/mL) | 1310 (≈ 513 µg/mL) | 120 | 2 | 1 | 1.5 | 0.8 | 164 | 41 | 327 | 82 | MIC (Proteus vulgaris): 330 µM (≈ 129 µg/mL); MIC (Candida albicans [17]): 52 µM; MIC (Aspergillus fumigatus [18]): 52 µM; MIC (Cryptococcus neoformans [19]): 26 µM; MIC (Aspergillus flavus [20]): 52 µM
3 | COc1ccc(N2CCN(C(=O)[C@H](O)[C@@H](O)C(=O)Nc3c(O)c4cc(O)ccc4oc3=O)CC2)cc1 |  | 16 to 64 µg/mL | 16 to 64 µg/mL |  | 16 to 64 µg/mL | 16 to 64 µg/mL |  |  |  |  |  |  |  |  |  |  |  |  |  |  | IC50 [21]: 100 µM
4 | O=C(Nc1ccc(F)c(Cl)c1)[C@H](O)[C@@H](O)C(=O)N1CCC2(CCNC2=O)CC1 | 70.6 | 309 µM | 155 µM | 150 (≈ 62.1 µg/mL) | 309 µM | 155 µM | 150 (≈ 62.1 µg/mL) | 310 (≈ 128 µg/mL) | 620 (≈ 257 µg/mL) | 310 (≈ 128 µg/mL) | 620 (≈ 257 µg/mL) | 220 | 1.3 | 1.5 | 2.3 | 1 | 77 | 155 | 77 | 77 | MIC (Proteus vulgaris): 310 µM (≈ 128 µg/mL); MIC (Candida albicans [17]): 52 µM; MIC (Aspergillus fumigatus [18]): 52 µM; MIC (Cryptococcus neoformans [19]): 104 µM; MIC (Aspergillus flavus [20]): 104 µM
